How the values were obtained:
[1] = molar heat capacity at constant pressure; conditions: 101.33 kPa, Liquid, Small sample (50 mg) DSC
[2] = Liquid; for mass density: 101.33 kPa, Vibrating tube method; for speed of sound: Pulse-echo method

CCCCCCCC(=O)OCC [ethyl octanoate]
Conditions | mass density, [2] [kg/m3] | molar heat capacity at constant pressure, [1] [J/K/mol]
278.15 K | 879.5 | –
283.15 K | 875.22 | –
285.01 K | – | 338
288.15 K | 870.94 | –
288.16 K | – | 339.38
293.15 K | 866.65 | 341.09
298.15 K | 862.36 | 343.12
303.15 K | 858.07 | –
303.16 K | – | 345.31
308.15 K | 853.76 | 347.48
313.15 K | 849.46 | 349.66
318.15 K | 845.14 | –
318.16 K | – | 351.96
323.15 K | 840.81 | 354.35
328.14 K | – | 356.9
328.15 K | 836.47 | –
333.15 K | 832.12 | 358.95
338.15 K | 827.76 | 361.55
343.15 K | 823.39 | –
343.16 K | – | 363.7
343.78 K | – | 364.29
348.15 K | 819 | –
353.15 K | 814.59 | –
358.15 K | 810.17 | –

[2]
Conditions | speed of sound [m/s]
292.9 K, 101320 kPa | 1668.8
292.91 K, 45590 kPa | 1484.7
292.91 K, 60790 kPa | 1539.2
292.91 K, 75990 kPa | 1590
292.91 K, 91180 kPa | 1638.3
292.92 K, 15200 kPa | 1359
292.92 K, 30390 kPa | 1426.7
292.94 K, 100 kPa | 1281.8
298.2 K, 45590 kPa | 1468.7
298.2 K, 60790 kPa | 1523.7
298.2 K, 75990 kPa | 1575
298.2 K, 91180 kPa | 1623.9
298.21 K, 30390 kPa | 1407.9
298.21 K, 101320 kPa | 1654.1
298.22 K, 100 kPa | 1261.5
298.22 K, 15200 kPa | 1340.8
303.13 K, 45590 kPa | 1453.6
303.13 K, 60790 kPa | 1509.1
303.13 K, 75990 kPa | 1561.4
303.13 K, 91180 kPa | 1610.1
303.13 K, 101320 kPa | 1639.9
303.14 K, 15200 kPa | 1324.2
303.14 K, 30390 kPa | 1391.8
303.2 K, 100 kPa | 1242.5
308.11 K, 15200 kPa | 1307.5
308.11 K, 30390 kPa | 1376.3
308.11 K, 45590 kPa | 1438.7
308.11 K, 60790 kPa | 1494.9
308.11 K, 75990 kPa | 1547.2
308.11 K, 91180 kPa | 1596.5
308.11 K, 101320 kPa | 1627.7
308.17 K, 100 kPa | 1223.6
313.09 K, 60800 kPa | 1480.5
313.09 K, 91180 kPa | 1582.8
313.1 K, 75990 kPa | 1533
313.1 K, 101320 kPa | 1614.8
313.11 K, 15200 kPa | 1290.2
313.11 K, 30390 kPa | 1360.2
313.11 K, 45590 kPa | 1423.1
313.15 K, 100 kPa | 1205
318.24 K, 30390 kPa | 1343.9
318.26 K, 15200 kPa | 1273
318.26 K, 45590 kPa | 1407.4
318.26 K, 60800 kPa | 1466
318.26 K, 75990 kPa | 1519.4
318.26 K, 91180 kPa | 1569.6
318.27 K, 101320 kPa | 1601.6
318.32 K, 100 kPa | 1185.7

CCCCCCCCCC(=O)OCC [ethyl decanoate]
Conditions | mass density, [2] [kg/m3] | molar heat capacity at constant pressure, [1] [J/K/mol]
283.15 K | 872.11 | –
286.16 K | – | 397.73
288.15 K | 868.06 | 398.53
293.15 K | 864 | 400.88
298.15 K | 859.94 | 403.34
303.15 K | 855.88 | –
303.16 K | – | 405.67
308.14 K | 851.82 | –
308.16 K | – | 408.17
313.14 K | 847.75 | –
313.16 K | – | 410.93
318.15 K | 843.68 | 413.64
323.15 K | 839.6 | 416.52
328.15 K | 835.52 | –
328.16 K | – | 419.55
333.14 K | – | 422.31
333.15 K | 831.43 | –
338.14 K | 827.33 | –
338.15 K | – | 425.46
341.11 K | – | 427.36
343.15 K | 823.23 | –
348.15 K | 819.11 | –
353.14 K | 814.99 | –

[2]
Conditions | speed of sound [m/s]
292.9 K, 30390 kPa | 1453.5
292.9 K, 45590 kPa | 1511.7
292.9 K, 60790 kPa | 1565.9
292.9 K, 75990 kPa | 1616.7
292.9 K, 101320 kPa | 1693.9
292.91 K, 15200 kPa | 1389.4
292.91 K, 91180 kPa | 1664.3
292.92 K, 100 kPa | 1313.8
298.17 K, 30390 kPa | 1436.1
298.17 K, 45590 kPa | 1494.9
298.17 K, 60790 kPa | 1549.4
298.17 K, 75990 kPa | 1601.3
298.17 K, 91180 kPa | 1648.6
298.17 K, 101320 kPa | 1678.8
298.18 K, 100 kPa | 1293.9
298.18 K, 15200 kPa | 1370.6
303.16 K, 100 kPa | 1275.2
303.16 K, 30390 kPa | 1419.1
303.16 K, 45590 kPa | 1479.6
303.16 K, 60790 kPa | 1534.7
303.16 K, 75990 kPa | 1586.9
303.16 K, 91180 kPa | 1635
303.16 K, 101320 kPa | 1665.9
303.17 K, 15200 kPa | 1353.1
308.13 K, 45590 kPa | 1464.6
308.13 K, 75990 kPa | 1572.1
308.13 K, 101320 kPa | 1652.9
308.14 K, 100 kPa | 1256.8
308.14 K, 15200 kPa | 1335.4
308.14 K, 30390 kPa | 1403
308.14 K, 60790 kPa | 1520.1
308.14 K, 91180 kPa | 1621.8
313.09 K, 45590 kPa | 1449.8
313.09 K, 75990 kPa | 1559.2
313.09 K, 91180 kPa | 1608.6
313.09 K, 101320 kPa | 1639
313.1 K, 30390 kPa | 1387.5
313.1 K, 60790 kPa | 1506.2
313.11 K, 100 kPa | 1238.5
313.11 K, 15200 kPa | 1318.7
318.26 K, 75990 kPa | 1544.9
318.26 K, 91180 kPa | 1594.7
318.26 K, 101320 kPa | 1626.5
318.27 K, 15200 kPa | 1301.6
318.27 K, 30390 kPa | 1371.7
318.27 K, 45590 kPa | 1434.9
318.27 K, 60790 kPa | 1491.6
318.28 K, 100 kPa | 1219.7

Source: the NIST ThermoML archive (doi:10.1021/je400157s)
